From patent US7855290B2, “Pyridine derivatives and pyrimidine derivatives (3)” (Eisai R&D Management Co., Ltd., priority 2005, dated 2010)

Legend:
[1] = biological target: T1, HGFR (Homo sapiens, UniProt P08581); experiment: Inhibitory activity against the HGFR autophosphorylation using ELISA (MKN-45 cells); format: cell-based; conditions: 1 hr with test substance
T1 construct: endogenous in cells; host or cells: MKN-45 human gastric cancer cells
Method in brief: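 MKN-45 gastric cancer cells, plated overnight in 1% FBS RPMI1640, treated with compound 1 h at 37° C and lysed. Lysate captured on anti-phosphotyrosine (PY20) plates, probed with anti-HGFR then HRP anti-rabbit IgG; TMB absorbance at 450 nm. Activity expressed as % of untreated extract (100%) versus lysis buffer blank (0%).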

[2] = tested on: Human umbilical vein endothelial cells (HUVECs); experiment: Inhibitory activity against the growth of vascular endothelial cells stimulated with hepatocyte growth factor; format: cell-based; conditions: HUVEC, HGF stimulated, third day, Cell Counting Kit-8, read-out: IC50 (cell proliferation activity)
Procedure: Human umbilical vein endothelial cells (HUVECs) were isolated according to the reported method (Shin Seikagaku Jikken Koza, “Cell culturing techniques”, p 197-202), and then cultured in a 5% CO2 incubator (37° C.) using EGM-2 medium (purchased from Clonetics) until the cells reached confluency.
HUVECs were suspended in a serum-free medium for endothelial cell culture (SFM, purchased from GIBCO RBL) containing 2% FBS. The cell suspension (2×10^4 cells/ml) was put in a cell culturing 96-well plate (purchased from NUNC, Production No. 167008) at 0.1 ml/well, and then cultured in a 5% CO2 incubator (37° C.) overnight. After the culture, each well was supplied with 50 μl of the test substance diluted with a 2% FBS-containing serum-free medium for endothelial cell culture and 50 μl of HGF (purchased from R&D) diluted at a concentration of 120 ng/ml with a 2% FBS-containing serum-free medium for endothelial cell culture, followed by culturing in a 5% CO2 incubator (37° C.). On the third day after the addition of the test substance, each well was supplied with 10 μl of Cell Counting Kit-8 (purchased from DOJINDO, Production No. 343-07623), and then the plate was incubated in a 5% CO2 incubator (37° C.) for about 2 hours. After the incubation, using a Plate Reader MTP-500 (Corona Electric), the absorbance of each well was determined at a measurement wavelength of 450 nm and a reference wavelength of 660 nm. While defining the absorbance of a well supplied with HGF and no test substance as 100% cell proliferation activity and the absorbance of the well supplied with no test substance and no HGF as 0% cell proliferation activity, the cell proliferation activity ratio (%) was calculated for each cell.

[3] = tested on: Human gastric cancer cells (MKN-45); experiment: Inhibitory activity against the tumor growth of human gastric cancer cells (MKN-45) transplanted in nude mice; format: in vivo, BALB/c (nu/nu) mice; conditions: orally twice every day, tumor volume at fifth day, relative to control group
Procedure: Human gastric cancer cells (MNK-45) were suspended in HBSS (purchased from GIBCO BRL). The cell suspension (5×10^7 cells/ml) was transplanted under the right flank skin of seven-week-old female BALB/c (nu/nu) mice at a volume of 0.1 ml. When tumor volume of the site transplanted with MNK-45 cells grew to 100-200 mm^3, mice were grouped so that the groups might be equalized in average tumor volume. The test substance was suspended in 0.5% methylcellulose, a mixed solution of hydrochloric acid and glucose (0.1N hydrochloric acid:5% glucose=1:9) or a mixed solution of dimethyl sulfoxide-Tween-glucose (dimethyl sulfoxide:Tween 80:5% glucose (containing equimolar hydrochloric acid to the test substance)=7:13:80), were administered orally to the mice twice every day. The tumor volumes were determined at the fifth day after the initiation of the administration of the test substances. The major axis and the minor axis of tumor were measured by a caliper to calculate ½×(major axis×minor axis×minor axis) for the tumor volume. The experiment was conducted using 10 mice in the control group (solvent-administered group) and 5 mice in test substance-administered group. The ratio in tumor volume of the group for administrating the test substance relative to that of the control group was defined as a tumor proliferation rate (%).

T1 sequence (P08581 25-1390): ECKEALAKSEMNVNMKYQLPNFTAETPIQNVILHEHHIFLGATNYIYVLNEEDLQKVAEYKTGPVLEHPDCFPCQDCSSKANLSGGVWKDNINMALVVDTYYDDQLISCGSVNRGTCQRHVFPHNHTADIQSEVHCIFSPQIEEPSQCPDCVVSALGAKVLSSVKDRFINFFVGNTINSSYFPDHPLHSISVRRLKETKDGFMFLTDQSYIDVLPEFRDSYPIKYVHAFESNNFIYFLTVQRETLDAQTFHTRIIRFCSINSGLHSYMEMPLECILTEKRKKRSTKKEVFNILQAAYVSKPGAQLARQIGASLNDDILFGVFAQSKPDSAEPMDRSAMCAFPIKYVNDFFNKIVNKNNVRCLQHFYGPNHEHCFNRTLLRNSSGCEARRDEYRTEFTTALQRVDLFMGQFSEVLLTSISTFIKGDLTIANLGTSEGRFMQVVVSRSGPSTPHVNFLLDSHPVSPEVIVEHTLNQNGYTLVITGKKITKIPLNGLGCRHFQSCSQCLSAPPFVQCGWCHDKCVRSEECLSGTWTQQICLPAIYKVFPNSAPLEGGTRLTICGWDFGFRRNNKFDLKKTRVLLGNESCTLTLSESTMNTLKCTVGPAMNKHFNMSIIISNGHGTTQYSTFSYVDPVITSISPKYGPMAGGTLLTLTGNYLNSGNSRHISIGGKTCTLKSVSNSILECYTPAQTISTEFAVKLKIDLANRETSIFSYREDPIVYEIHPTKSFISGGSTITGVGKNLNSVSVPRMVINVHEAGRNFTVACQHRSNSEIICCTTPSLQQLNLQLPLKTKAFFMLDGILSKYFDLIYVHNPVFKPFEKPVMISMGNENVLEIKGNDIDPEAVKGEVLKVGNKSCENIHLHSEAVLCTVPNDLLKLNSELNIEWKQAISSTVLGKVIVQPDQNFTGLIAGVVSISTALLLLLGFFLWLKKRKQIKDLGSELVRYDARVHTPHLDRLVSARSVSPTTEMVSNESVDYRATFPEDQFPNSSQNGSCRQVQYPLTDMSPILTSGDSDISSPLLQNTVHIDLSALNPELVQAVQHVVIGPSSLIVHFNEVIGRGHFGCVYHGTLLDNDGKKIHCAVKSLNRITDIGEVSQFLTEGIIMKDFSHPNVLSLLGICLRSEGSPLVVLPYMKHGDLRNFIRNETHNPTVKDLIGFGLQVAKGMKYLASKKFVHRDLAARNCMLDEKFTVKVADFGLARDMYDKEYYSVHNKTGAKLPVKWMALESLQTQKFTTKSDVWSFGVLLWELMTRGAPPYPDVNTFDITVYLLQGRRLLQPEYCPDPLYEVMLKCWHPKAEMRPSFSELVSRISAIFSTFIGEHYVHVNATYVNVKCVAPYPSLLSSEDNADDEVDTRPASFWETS

CN1CCC(N(C)C(=O)Nc2cc(Oc3ccc(NC(=O)C4(C(=O)Nc5ccc(F)cc5)CC4)c(F)c3)ccn2)CC1 [Example 3, N-(2-Fluoro-4-{[2-({[methyl(1-methylpiperidin-4-yl)amino]carbonyl}amino)pyridin-4-yl]oxy}phenyl)-N′-(4-fluorophenyl)cyclopropane-1,1-dicarboxamide]
IC50 [1]: 19 nM
IC50 [2]: 13 nM

CN1CC(N2CCN(C(=O)Nc3cc(Oc4ccc(NC(=O)C5(C(=O)Nc6ccc(F)cc6)CC5)c(F)c4)ccn3)CC2)C1 [Example 17]
IC50 [1]: 15 nM
IC50 [2]: 17 nM

CN(C)CC1CCN(C(=O)Nc2cc(Oc3ccc(NC(=O)C4(C(=O)Nc5ccc(F)cc5)CC4)c(F)c3)ccn2)CC1 [Example 8, N-[4-({2-[({4-[(Dimethylamino)methyl]piperidin-1-yl}carbonyl)amino]pyridin-4-yl}oxy)-2-fluorophenyl]-N′-(4-fluorophenyl)cyclopropane-1,1-dicarboxamide]
IC50 [1]: 14 nM
Tumor proliferation rate (%) ([3]; Dose 30 mg/kg/time): 53%
Tumor proliferation rate (%) ([3]; Dose 100 mg/kg/time): 23.3%

CN(C)CCN1CCN(C(=O)Nc2cc(Oc3ccc(NC(=O)C4(C(=O)Nc5ccc(F)cc5)CC4)cc3F)ccn2)CC1 [Example 7, N-[4-({2-[({4-[2-(Dimethylamino)ethyl]piperazin-1-yl}carbonyl)amino]pyridin-4-yl}oxy)-3-fluorophenyl]-N′-(4-fluorophenyl)cyclopropane-1,1-dicarboxamide]
IC50 [1]: 35 nM
IC50 [2]: 18 nM

CN(C)C1CN(C2CCN(C(=O)Nc3cc(Oc4ccc(NC(=O)C5(C(=O)Nc6ccc(F)cc6)CC5)c(F)c4)ccn3)CC2)C1 [Example 14, N-[4-({2-[({4-[3-(Dimethylamino)azetidin-1-yl]piperidin-1-yl}carbonyl)amino]pyridin-4-yl}oxy)-2-fluorophenyl]-N′-(4-fluorophenyl)cyclopropane-1,1-dicarboxamide]
IC50 [1]: 19 nM
IC50 [2]: 23 nM

CN1CCC(N(C)C(=O)Nc2cc(Oc3ccc(NC(=O)C4(C(=O)Nc5ccc(F)cc5)CC4)cc3F)ccn2)CC1 [Example 1, N-(3-Fluoro-4-{[2-({[methyl(1-methylpiperidin-4-yl)amino]carbonyl}amino)pyridin-4-yl]oxy}phenyl)-N′-(4-fluorophenyl)cyclopropane-1.1-dicarboxamide]
IC50 [1]: 18 nM
IC50 [2]: 4.6 nM

CN(C)CCN1CCN(C(=O)Nc2cc(Oc3ccc(NC(=O)C4(C(=O)Nc5ccc(F)cc5)CC4)c(F)c3)ccn2)CC1 [Example 2, N-[4-({2-[({4-[2-(Dimethylamino)ethyl]piperazin-1-yl}carbonyl)amino]pyridin-4-yl}oxy)-2-fluorophenyl]-N′-(4-fluorophenyl)cyclopropane-1,1-dicarboxamide]
IC50 [1]: 21 nM
Tumor proliferation rate (%) ([3]; Dose 30 mg/kg/time): 73.3%
Tumor proliferation rate (%) ([3]; Dose 100 mg/kg/time): 27.5%
IC50 [2]: 18 nM

CN(C)C1CN(C2CCN(C(=O)Nc3cc(Oc4ccc(NC(=O)C5(C(=O)Nc6ccc(F)cc6)CC5)cc4F)ccn3)CC2)C1 [Example 21, N-[4-({2-[({4-[3-(Dimethylamino)azetidin-1-yl]piperidin-1-yl}carbonyl)amino]pyridin-4-yl}oxy)-3-fluorophenyl]-N′-(4-fluorophenyl)cyclopropane-1,1-dicarboxamide]
IC50 [1]: 11 nM
IC50 [2]: 24 nM

CN1CCC(N(C)C(=O)Nc2cc(Oc3ccc(NC(=O)C4(C(=O)Nc5ccc(F)cc5)CC4)cc3)ccn2)CC1 [Example 12]
IC50 [1]: 40 nM
Tumor proliferation rate (%) ([3]; Dose 30 mg/kg/time): 73.9%
Tumor proliferation rate (%) ([3]; Dose 100 mg/kg/time): 27.6%
IC50 [2]: 23 nM

O=C(Nc1cc(Oc2ccc(NC(=O)C3(C(=O)Nc4ccc(F)cc4)CC3)c(F)c2)ccn1)N1CCC(N2CCC2)CC1 [Example 9, N-{4-[(2-{[(4-Azetidin-1-ylpiperidin-1-yl)carbonyl]amino}pyridin-4-yl)oxy]-2-fluorophenyl}-N′-(4-fluorophenyl)cyclopropane-1,1-dicarboxamide]
IC50 [1]: 11 nM
IC50 [2]: 25 nM

O=C(Nc1cc(Oc2ccc(NC(=O)C3(C(=O)Nc4ccc(F)cc4)CC3)cc2F)ccn1)N1CCC(N2CCC2)CC1 [Example 11, N-{4-[(2-{[(4-Azetidin-1-ylpiperidin-1-yl)carbonyl]amino}pyridin-4-yl)oxy]-3-fluorophenyl}-N′-(4-fluorophenyl)cyclopropane-1,1-dicarboxamide]
IC50 [1]: 13 nM
IC50 [2]: 33 nM

O=C(Nc1cc(Oc2cc(F)c(NC(=O)C3(C(=O)Nc4ccc(F)cc4)CC3)cc2F)ncn1)N1CC(CO)C1 [Example 99, N-(2,5-Difluoro-4-{[4-({[3-(hydroxymethyl)azetidin-1-yl]carbonyl}amino)pyrimidin-6-yl]oxy}phenyl)-N′-(4-fluorophenyl)cyclopropane-1,1-dicarboxamide]
IC50 [1]: 14 nM

CCN(CC)CCCN(C)C(=O)Nc1cc(Oc2ccc(NC(=O)C3(C(=O)Nc4ccc(F)cc4)CC3)cc2F)ccn1 [Example 44, N-(4-{[2-({[[3-(Diethylamino)propyl](methyl)amino]carbonyl}amino)pyridin-4-yl]oxy}-3-fluorophenyl)-N′-(4-fluorophenyl)cyclopropane-1,1-dicarboxamide]
IC50 [1]: 80 nM

O=C(Nc1cc(Oc2ccc(NC(=O)C3(C(=O)Nc4ccc(F)cc4)CC3)cc2)ccn1)N1CCC(CN2CCC2)CC1 [Example 27, N-(4-{[2-({f [4-(Azetidin-1-ylmethyl)piperidin-1-yl]carbonyl}amino)pyridin-4-yl]oxy}phenyl)-N′-(4-fluorophenyl)cyclopropane-1,1-dicarboxamide]
IC50 [1]: 32 nM

O=C(Nc1cc(Oc2ccc(NC(=O)C3(C(=O)Nc4ccc(F)cc4)CC3)cc2F)ccn1)N1CCC1 [Example 65, N-[4-({2-[(Azetidin-1-ylcarbonyl)amino]pyridin-4-yl}oxy)-3-fluorophenyl]-N′-(4-fluorophenyl)cyclopropane-1,1-dicarboxamide]
IC50 [1]: 10 nM

CN(C)[C@@H]1CCN(C(=O)Nc2cc(Oc3ccc(NC(=O)C4(C(=O)Nc5ccc(F)cc5)CC4)cc3)ccn2)C1 [Example 42, N-(4-{[2-({[(3R)-3-(Dimethylamino)pyrrolidin-1-yl]carbonyl}amino)pyridin-4-yl]oxy}phenyl)-N′-(4-fluorophenyl)cyclopropane-1,1-dicarboxamide]
IC50 [1]: 42 nM

CN1CCC(N2CCN(C(=O)Nc3cc(Oc4ccc(NC(=O)C5(C(=O)Nc6ccc(F)cc6)CC5)cc4)ccn3)CC2)CC1 [Example 31, N-(4-Fluorophenyl)-N′-(4-{[2-({[4-(1-methylpiperidin-4-yl)piperazin-1-yl]carbonyl}amino)pyridin-4-yl]oxy}phenyl)cyclopropane-1,1-dicarboxamide]
IC50 [1]: 30 nM
